Laboratory results as given in patent US7601745B2, “Heterocyclic NF-kB inhibitors” (4SC AG, priority 2004, dated 2009).

tested on: A549-NF-κB-SEAP reporter cells; test: Inhibition of NF-κB-induced inflammation ([…] NINA Instant Assay, SEAP reporter); format: cell-based; conditions: NF-κB inflammation assay
Outline: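 Reporter cells reactivated 18 h at 37° C, pre-incubated 4.5 h with compound (0.01 up to 100 μM), then stimulated with 2 ng/ml TNF-α for 22 h. SEAP measured by CSPD chemiluminescence (40 min) after endogenous phosphatase inactivation; EC50 fitted from quadruplicates.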

Row | SMILES | Biological activity (inhibition in the NF-κB inflammation assay)
1 | Cn1c(NC(=O)c2csc(NC(=O)c3ccccc3OC(F)(F)F)n2)nc2ccccc21 [compound 46] | +++ (“+++” stands for 90-100% inhibition)
2 | N=C(NC(=O)c1csc(N2CCOCC2)n1)Nc1nc2ccccc2[nH]1 [compound 49] | +++ (“+++” stands for 90-100% inhibition)
3 | CN1CCN(c2ccc3nc(NC(=O)c4csc(NC(=O)c5ccccc5OC(F)(F)F)n4)sc3c2)CC1 [compound 42] | +++ (“+++” stands for 90-100% inhibition)
4 | O=C(Nc1nc2ccccc2[nH]1)c1csc(NC(=O)c2ccccc2OC(F)(F)F)n1 [compound 31] | +++ (“+++” stands for 90-100% inhibition)
5 | N=C(NC(=O)c1csc(N2CCOCC2)n1)Nc1nc2ccccc2[nH]1 [compound 91] | + (“+” stands for 50-80% inhibition)

same assay, conditions: compounds of formula (I); TNF-α stimulated reporter cells; test concentration not given

Row | SMILES | Biological activity (NF-κB inflammation assay, inhibition)
6 | O=C(c1csc(C2CCN(Cc3ccc(-c4ccccc4)cc3)CC2)n1)N1CCN(c2cccc(C(F)(F)F)c2)CC1 [compound 167] | + (“+” stands for 50-80% inhibition)
7 | N#Cc1ccc(CN2CCC(c3nc(C(=O)N4CCN(c5cccc(C(F)(F)F)c5)CC4)cs3)CC2)cc1 [compound 166] | + (“+” stands for 50-80% inhibition)
8 | COc1cccc(N2CCC(c3nc(C(=O)N4CCN(c5cccc(C(F)(F)F)c5)CC4)cs3)CC2)c1 [compound 178] | + (“+” stands for 50-80% inhibition)
9 | COc1nc(OC)nc(N2CCN(C(=O)c3csc(C4CCN(C(=O)c5ccccc5OC(F)(F)F)CC4)n3)CC2)n1 [compound 127] | + (“+” stands for 50-80% inhibition)
10 | O=C(c1csc(C2CCN(C(=O)c3ccccc3OC(F)(F)F)CC2)n1)N(CCO)Cc1ccccc1 [compound 148] | ++ (“++” means 80-90%)
11 | O=C(c1csc(C2CCN(c3cc(C(F)(F)F)ccn3)CC2)n1)N1CCN(c2cccc(C(F)(F)F)c2)CC1 [compound 118] | + (“+” stands for 50-80% inhibition)
12 | O=C(c1csc(C2CCN(C(=O)c3cc4ccccc4s3)CC2)n1)N1CCN(c2cccc(C(F)(F)F)c2)CC1 [compound 213] | ++ (“++” means 80-90%)
13 | CN(C(=O)c1csc(C2CCN(C(=O)c3ccccc3OC(F)(F)F)CC2)n1)C(CN1CCOCC1)c1ccccc1 (centres unmarked) [compound 147] | + (“+” stands for 50-80% inhibition)
14 | O=C(c1csc(C2CCN(S(=O)(=O)c3ccc(Cl)cc3Cl)CC2)n1)N1CCN(c2cccc(C(F)(F)F)c2)CC1 [compound 200] | + (“+” stands for 50-80% inhibition)
15 | COc1cccc(C(=O)N2CCC(c3nc(C(=O)N4CCN(c5cccc(C(F)(F)F)c5)CC4)cs3)CC2)c1 [compound 209] | + (“+” stands for 50-80% inhibition)
16 | COc1nc(OC)nc(N2CCN(C(=O)c3csc(C4CCN(Cc5ccc(Br)cc5)CC4)n3)CC2)n1 [compound 121] | + (“+” stands for 50-80% inhibition)
17 | O=C(c1csc(C2CCN(C(=O)C3COc4ccccc4O3)CC2)n1)N1CCN(c2cccc(C(F)(F)F)c2)CC1 (centres unmarked) [compound 217] | +++ (“+++” stands for 90-100% inhibition)
18 | CS(=O)(=O)c1ccc(N2CCC(c3nc(C(=O)N4CCN(c5cccc(C(F)(F)F)c5)CC4)cs3)CC2)cc1 [compound 117] | + (“+” stands for 50-80% inhibition)
19 | O=C(c1csc(C2CCN(S(=O)(=O)c3ccc(Br)s3)CC2)n1)N1CCN(c2cccc(C(F)(F)F)c2)CC1 [compound 203] | + (“+” stands for 50-80% inhibition)
20 | O=C(Cc1ccc(F)cc1)N1CCC(c2nc(C(=O)N3CCC(n4nnc5cc(C(F)(F)F)ccc54)CC3)cs2)CC1 [compound 181] | + (“+” stands for 50-80% inhibition)
21 | O=C(c1csc(C2CCN(S(=O)(=O)c3c(Cl)nc4sccn34)CC2)n1)N1CCN(c2cccc(C(F)(F)F)c2)CC1 [compound 197] | + (“+” stands for 50-80% inhibition)
22 | Cc1ccc(S(=O)(=O)N2CCC(c3nc(C(=O)N4CCN(c5cccc(C(F)(F)F)c5)CC4)cs3)CC2)cc1 [compound 204] | + (“+” stands for 50-80% inhibition)

Row | SMILES | Biological activity (NF-κB inflammation assay, inhibition)
23 | Cc1noc(C)c1C(=O)N1CCC(c2nc(C(=O)N3CCN(c4cccc(C(F)(F)F)c4)CC3)cs2)CC1 [compound 219] | + (“+” stands for 50-80% inhibition)
24 | O=C(c1csc(C2CCN(S(=O)(=O)c3ccc(Cl)cc3)CC2)n1)N1CCN(c2cccc(C(F)(F)F)c2)CC1 [compound 206] | + (“+” stands for 50-80% inhibition)
25 | O=C(c1csc(C2CCN(Cc3ccccc3Br)CC2)n1)N1CCN(c2cccc(C(F)(F)F)c2)CC1 [compound 165] | + (“+” stands for 50-80% inhibition)
26 | O=C(c1csc(C2CCN(c3ccc(C(F)(F)F)cc3)CC2)n1)N1CCN(c2cccc(C(F)(F)F)c2)CC1 [compound 155] | + (“+” stands for 50-80% inhibition)
27 | COc1ccc(Cl)cc1S(=O)(=O)N1CCC(c2nc(C(=O)N3CCN(c4cccc(C(F)(F)F)c4)CC3)cs2)CC1 [compound 202] | ++ (“++” means 80-90%)
28 | COc1nc(OC)nc(N2CCN(C(=O)c3csc(C4CCNCC4)n3)CC2)n1 [compound 152] | ++ (“++” means 80-90%)
29 | CSc1nccc(N2CCN(C(=O)c3csc(C4CCN(C(=O)c5ccccc5OC(F)(F)F)CC4)n3)CC2)n1 [compound 124] | + (“+” stands for 50-80% inhibition)
30 | O=C(Cc1ccc(F)cc1)N1CCC(c2nc(C(=O)N3CCN(c4ccccc4)CC3)cs2)CC1 [compound 180] | + (“+” stands for 50-80% inhibition)
31 | CN(C)c1cccc(C(=O)N2CCC(c3nc(C(=O)N4CCN(c5cccc(C(F)(F)F)c5)CC4)cs3)CC2)c1 [compound 226] | ++ (“++” means 80-90%)
32 | O=C(c1csc(C2CCN(c3ccccc3)CC2)n1)N1CCN(c2cccc(C(F)(F)F)c2)CC1 [compound 119] | + (“+” stands for 50-80% inhibition)
33 | O=C(c1csc(C2CCN(Cc3ccc(F)cc3)CC2)n1)N1CCN(c2cccc(C(F)(F)F)c2)CC1 [compound 170] | + (“+” stands for 50-80% inhibition)
34 | O=C(c1csc(C2CCN(Cc3ccncc3)CC2)n1)N1CCN(c2cccc(C(F)(F)F)c2)CC1 [compound 107] | + (“+” stands for 50-80% inhibition)
35 | COc1cc(C(=O)N2CCC(c3nc(C(=O)N4CCN(c5cccc(C(F)(F)F)c5)CC4)cs3)CC2)cc(OC)c1OC [compound 225] | + (“+” stands for 50-80% inhibition)
36 | O=C(O)c1cccnc1C(=O)N1CCC(c2nc(C(=O)N3CCN(c4cccc(C(F)(F)F)c4)CC3)cs2)CC1 [compound 183] | + (“+” stands for 50-80% inhibition)
37 | O=C(c1csc(C2CCN(Cc3ccccc3)CC2)n1)N1CCN(c2cccc(C(F)(F)F)c2)CC1 [compound 177] | + (“+” stands for 50-80% inhibition)
38 | O=C(c1csc(C2CCN(Cc3c(F)cccc3F)CC2)n1)N1CCN(c2cccc(C(F)(F)F)c2)CC1 [compound 168] | + (“+” stands for 50-80% inhibition)

same assay, conditions: compounds of formula (II); TNF-α stimulated reporter cells; test concentration not given

Row | SMILES | Biological activity (NF-κB inflammation assay, inhibition)
39 | O=C(Nc1nc(C(=O)N2CCN(c3cccc(C(F)(F)F)c3)CC2)cs1)c1ccccc1OC(F)(F)F [compound 32] | +++ (“+++” stands for 90-100% inhibition)
40 | COc1ccccc1N1CCN(c2nc(C(=O)N3CCN(c4cccc(C(F)(F)F)c4)CC3)cs2)CC1 [compound 65] | ++ (“++” means 80-90%)
41 | O=C(CCC1CCCC1)N1CCN(c2nc(C(=O)N3CCN(c4cccc(C(F)(F)F)c4)CC3)cs2)CC1 [compound 37] | +++ (“+++” stands for 90-100% inhibition)
42 | COc1ccccc1C(=O)N1CCN(c2nc(C(=O)N3CCN(c4cccc(C(F)(F)F)c4)CC3)cs2)CC1 [compound 38] | +++ (“+++” stands for 90-100% inhibition)
43 | O=C(Nc1nc(C(=O)N2CCN(c3cccc(C(F)(F)F)c3)CC2)cs1)Nc1ccccc1OC(F)(F)F [compound 55] | +++ (“+++” stands for 90-100% inhibition)
44 | O=C(NCC1CCN(c2nc(C(=O)N3CCN(c4cccc(C(F)(F)F)c4)CC3)cs2)CC1)c1ccccc1OC(F)(F)F [compound 101] | + (“+” stands for 50-80% inhibition)
45 | O=C(c1csc(N2CCN(c3ccccc3)CC2)n1)N1CCN(c2cccc(C(F)(F)F)c2)CC1 [compound 68] | + (“+” stands for 50-80% inhibition)

same assay, conditions: compounds of formula (Ia); TNF-α stimulated reporter cells; test concentration not given

Row | SMILES | Biological activity (NF-κB inflammation assay, inhibition)
46 | O=C(Nc1cccc(F)c1)N1CCC(c2nc(C(=O)N3CCN(c4cccc(C(F)(F)F)c4)CC3)cs2)CC1 [compound 142] | ++ (“++” means 80-90%)

same assay, conditions: compounds of formula (Ib); TNF-α stimulated reporter cells; test concentration not given

Row | SMILES | Biological activity (NF-κB inflammation assay, inhibition)
47 | Cc1sc(C2CCN(C(=O)c3ccccc3OC(F)(F)F)CC2)nc1CC(=O)N1CCN(c2cccc(C(F)(F)F)c2)CC1 [compound 103] | ++ (“++” means 80-90%)

same assay, conditions: compounds of formula (Ic); TNF-α stimulated reporter cells; test concentration not given

Row | SMILES | Biological activity (NF-κB inflammation assay, inhibition)
48 | O=C(Cc1ccc(F)cc1)N1CCC(c2nc(C(=O)N3CCc4cc(O)c(O)cc4C3)cs2)CC1 [compound 160] | + (“+” stands for 50-80% inhibition)
49 | O=C(Cc1ccc(F)cc1)N1CCC(c2nc(C(=O)N3CCc4ccccc4C3)cs2)CC1 [compound 163] | + (“+” stands for 50-80% inhibition)
50 | CNc1ccc(Cl)cc1C1c2ccccc2CCN1C(=O)c1csc(C2CCN(C(=O)c3ccccc3OC(F)(F)F)CC2)n1 (centres unmarked) [compound 150] | ++ (“++” means 80-90%)
